Measured values taken from US20160333404A1, “METHODS FOR TREATING HCV” (priority 2012, published 2016).

How the values were obtained:
miR-122 [1] = test: Serum miR-122 expression by microRNA real-time PCR, Example 2, 3 days polymerase inhibitor monotherapy then with P/R; type: in vivo, human; settings: treatment-naïve GT1 subjects, day 3 vs day 1
Method: Sample preparation and microRNA real-time PCR. Serum samples were collected at baseline (“BASE”), week 2 on-treatment (“W2”), week 10 on-treatment (“W10”), and 8 weeks after completing the 12 week regimen (“Post Week 8”) and frozen until analysis. Total RNA was extracted from serum using the Qiagen miRNeasy® Mini Kit. Serum was thawed on ice and centrifuged at 3000×g for 5 min in a 4° C. microcentrifuge. An aliquot of 200 μL of serum per sample was transferred to a new microcentrifuge tube and 750 μl of a Qiazol mixture containing 1.25 μg/mL of MS2 bacteriophage RNA was added to the serum. The tube was mixed and incubated for 5 min followed by the addition of 200 μL chloroform. […]
15 μl RNA was reverse transcribed in 75 μl reactions using the miRCURY LNA™ Universal RT microRNA PCR, Polyadenylation and cDNA synthesis kit (Exiqon). cDNA was diluted 50× and assayed in 10 ul PCR reactions according to the protocol for miRCURY LNA™ Universal RT microRNA PCR; each microRNA was assayed once by qPCR on the microRNA Ready-to-Use PCR, Human panel I and panel II. […] The amplification curves were analyzed using the Roche LC software, both for determination of Cp (by the 2nd derivative method) and for melting curve analysis. All data was normalized to the average of assays detected in all samples (average—assay Cp). […]

miR-122 [2] = test: Serum miR-122 levels with or without RBV, genotype 2 and 3 patients that achieved SVR (FIG. 7); type: in vivo, human; settings: HCV 2 and 3 subjects who achieve SVR on Compound 1/r with Compound 3; presence n=13, absence n=9
Description: Sample preparation and microRNA real-time PCR. Serum samples were collected at baseline (“Baseline”), day 3 on-treatment (“Day 3”), week 2 on-treatment (“Week 2”), week 10 on-treatment (“Week 10”), and 8 weeks after completing the 12 week regimen (“PT Week 8”) and frozen until analysis. Samples were processed as described in Example 1.
In HCV 2 and 3 subjects who achieve SVR, miR-122 levels are not affected by the presence (n=13) or absence (n=9) of RBV.

Structure (SMILES)	Levels of miR-122 after three days of polymerase inhibitor alone (miR-122 [1])	effect of presence or absence of RBV on miR-122 levels (miR-122 [2])
COc1c(-c2ccc3cc(NS(C)(=O)=O)ccc3c2)cc(-n2ccc(=O)[nH]c2=O)cc1C(C)(C)C [Compound 2, N-(6-(3-tert-butyl-5-(2,4-dioxo-3,4-dihydropyrimidin-1(2H)-yl)-2-methoxyphenyl)naphthalen-2-yl)methanesulfonamide]	decreased	–
COc1c(/C=C/c2ccc(NS(C)(=O)=O)cc2)cc(-n2ccc(=O)[nH]c2=O)cc1C(C)(C)C [Compound 4, (E)-N-(4-(3-tert-butyl-5-(2,4-dioxo-3,4-dihydropyrimidin-1(2H)-yl)-2-methoxystyryl)phenyl)methanesulfonamide]	decreased	–
NC(=O)c1ncn([C@@H]2O[C@H](CO)[C@@H](O)[C@H]2O)n1 [RBV, ribavirin]	–	not affected
